One data set can be described thus: Half-life in liver. In kind it is in vitro ADME. The conditions noted are these: unit inferred, unit assumed.
A short description of another data set: Half-life in plasma. The settings on record: unit inferred, unit assumed.
Data set [1] deals with T1, Calpain I from human erythrocytes (Homo sapiens, UniProt P07384).
T1 construct: Calpain I was purified from human erythrocytes; from tissue; host or cells: human erythrocytes
T1 sequence (P07384 1-714): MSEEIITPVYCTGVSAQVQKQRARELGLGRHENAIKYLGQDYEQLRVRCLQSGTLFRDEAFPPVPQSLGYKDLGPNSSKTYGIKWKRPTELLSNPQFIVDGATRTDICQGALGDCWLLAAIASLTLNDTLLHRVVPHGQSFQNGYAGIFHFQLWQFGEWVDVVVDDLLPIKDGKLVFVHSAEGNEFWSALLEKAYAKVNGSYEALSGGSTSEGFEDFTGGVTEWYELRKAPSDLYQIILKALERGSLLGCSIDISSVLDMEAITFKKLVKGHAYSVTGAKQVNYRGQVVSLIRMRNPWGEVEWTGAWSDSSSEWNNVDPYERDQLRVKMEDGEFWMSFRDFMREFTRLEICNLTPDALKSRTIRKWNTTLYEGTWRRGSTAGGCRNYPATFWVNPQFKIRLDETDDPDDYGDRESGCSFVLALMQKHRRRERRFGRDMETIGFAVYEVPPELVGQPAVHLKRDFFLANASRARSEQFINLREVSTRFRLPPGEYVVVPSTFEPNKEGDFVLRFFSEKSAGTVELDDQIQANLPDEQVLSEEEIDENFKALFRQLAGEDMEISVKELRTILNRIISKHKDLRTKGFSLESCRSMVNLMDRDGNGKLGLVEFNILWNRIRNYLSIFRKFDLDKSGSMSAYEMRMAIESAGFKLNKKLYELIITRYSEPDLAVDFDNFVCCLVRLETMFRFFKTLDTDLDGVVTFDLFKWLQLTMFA
T1 sequence (P04632 1-268 partner): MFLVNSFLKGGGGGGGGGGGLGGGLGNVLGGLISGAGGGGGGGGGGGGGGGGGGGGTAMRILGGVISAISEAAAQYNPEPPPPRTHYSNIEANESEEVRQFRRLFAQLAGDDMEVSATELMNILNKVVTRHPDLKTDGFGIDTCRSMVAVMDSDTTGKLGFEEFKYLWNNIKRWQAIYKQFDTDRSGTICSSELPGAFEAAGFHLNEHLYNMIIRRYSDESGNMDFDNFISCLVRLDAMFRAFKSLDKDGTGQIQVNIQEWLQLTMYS
Description: Calpain I inhibition, Suc-Leu-Tyr-AMC hydrolysis. It counts as biochemical. The settings on record: ratio of KI values. How it is done: (§1) HEPES, heparin, and A23187 were obtained from Calbiochem. Suc--Leu--Tyr--AMC and chromogenic substrates were obtained from Sigma Calpain I was purified from human erythrocytes according to the method of Kitahara (Kitahara et al., J. Biochem. 95, 1759-1766) omitting the Blue-Sepharose step. Calpain II from rabbit muscle and cathepsin B were purchased from Sigma. Papain was purchased from Calbiochem.
(§2) Peptide α-ketoamides were assayed as reversible enzyme inhibitors. Various concentrations of inhibitors in Me2 SO were added to the assay mixture which contained buffer and substrate. The reaction was started by the addition of the enzyme and the hydrolysis rates were followed spectrophotometrically or fluorimetrically.
(§3) Calpain I from human erythrocytes and calpain II from rabbit were assayed using Suc-Leu-Tyr-AMC [Sasaki et al., J. Biol. Chem. 259, 12489-12494 (1984); incorporated herein by reference], and the AMC (7-amino-4-methylcoumarin) release was followed fluorimetrically (excitation at 380 nm, and emmision at 460 nm). Calpains were assayed in 25 mM Tris pH=8.0, 10 mM CaCl2. Fluorescence was followed using a Gilson FL-1A fluorometer or a Perkin-Elmer 203 Fluorescence spectrometer. […] Enzymatic hydrolysis rates were measured at various substrate and inhibitor concentrations, and KI values were determined by either Lineweaver-Burk plots or Dixon plots. […]

Another data set has as its target T2, cathepsin B (Homo sapiens, UniProt P07858).
T2 construct: purchased Sigma
Put plainly: Cathepsin B inhibition. It counts as biochemical. The method, then: as §1, §2, §3

In data set [2] the target is Calpain II from rabbit muscle. Description: Calpain II inhibition, Suc-Leu-Tyr-AMC hydrolysis. It counts as biochemical. The method, then: HEPES, heparin, and A23187 were obtained from Calbiochem. […] Calpain II from rabbit muscle and cathepsin B were purchased from Sigma. Papain was purchased from Calbiochem.
as §2
as §3, with “spectrometer. Cathepsin B was assayed in 20 mM sodium acetate pH=5.2, 0.5 mM dithiothreitol using Bz-Phe-Val-Arg-p-nitroanilide as substrate. Alternately, cathepsin B was assayed with Z-Arg-Arg-AFC [Barrett and Kirschke, Methods Enzymol.” for “spectrometer.”

As for `CCCNC(=O)C(=O)[C@H](CC)NC(=O)[C@H](CC(C)C)NC(=O)OCc1ccccc1` [Z-Leu-Abu-CONH-nPr, Z--Leu--Abu--CONH--nPr], in “Half-life in liver”, the t1/2 liver was > 1 h. Besides, in the data set “Half-life in plasma”, the t1/2 plasma was > 1 h.

`CC(C)CC(NC(=O)OCc1ccccc1)C(=O)NC(Cc1ccccc1)C(=O)C(=O)OCc1ccccc1` (stereo not drawn) [Z-Leu-Phe-COOBz] showed a t1/2 plasma in “Half-life in plasma” of 0.0317 h.

`CCCCNC(=O)C(=O)C(CC)NC(=O)C(CC(C)C)NC(=O)OCc1ccccc1` (stereo not drawn) [Z-Leu-Abu-CONH-nBu, Z--Leu--Abu--CONH--nBu]: the t1/2 liver in the data set “Half-life in liver” was > 1 h. In addition, the t1/2 plasma in “Half-life in plasma” was > 1 h. Turning to `CCCNC(=O)C(=O)C(Cc1ccccc1)NC(=O)C(CC(C)C)NC(=O)OCc1ccccc1` (stereo not drawn) [Z-Leu-Phe-CONH-nPr, Z--Leu--Phe--CONH--nPr], in the data set “Half-life in liver”, the t1/2 liver is > 1 h. In addition, the t1/2 plasma in “Half-life in plasma” is > 1 h. In the data set “Half-life in plasma”, `CCCCOC(=O)C(=O)[C@H](Cc1ccccc1)NC(=O)[C@H](CC(C)C)NC(=O)OCc1ccccc1` [Z-Leu-Phe-COOnBu] had a t1/2 plasma of 0.128 h. For the compound `CCC(NC(=O)C(CC(C)C)NC(=O)OCc1ccccc1)C(=O)C(=O)NCC(C)C` (stereo not drawn) [Z-Leu-Abu-CONH-iBu, Z--Leu--Abu--CONH--iBu], in the data set “Half-life in plasma”, the t1/2 plasma is > 1 h. Same read-out and setting: next, `CCOC(=O)C(=O)[C@H](CC)NC(=O)[C@H](CC(C)C)NC(=O)OCc1ccccc1` [Z-Leu-Abu-COOEt, reference compound]: 0.0467 h. Take `CC(C)CC(NC(=O)OCc1ccccc1)C(=O)NC(Cc1ccccc1)C(=O)C(=O)O` (stereo not drawn) [Z-Leu-Phe-COOH, reference compound]: the t1/2 liver in the data set “Half-life in liver” was > 1 h. The t1/2 plasma in the data set “Half-life in plasma” is > 1 h.

As to `CCCCNC(=O)C(=O)C(Cc1ccccc1)NC(=O)C(CC(C)C)NC(=O)OCc1ccccc1` (stereo not drawn) [Z-Leu-Phe-CONH-nBu, Z--Leu--Phe--CONH--nBu], the t1/2 liver in the data set “Half-life in liver” is > 1 h. Moreover, the t1/2 plasma in “Half-life in plasma” was > 1 h. In the case of `CCNC(=O)C(=O)[C@H](CC)NC(=O)[C@H](CC(C)C)NC(=O)OCc1ccccc1` [Z-Leu-Abu-CONH-Et, Z--Leu--Abu--CONH--Et], the t1/2 liver in “Half-life in liver” was > 1 h. Moreover, the “fold better inhibitor of calpain I than Z--Leu--Phe--CONH--Et” value in data set [1] was 14 fold. Besides, in the data set “Half-life in plasma”, the t1/2 plasma is > 1 h. Moreover, the “KI Cath B” value at cathepsin B is given as “best inhibitor”. With `CCC(NC(=O)C(CC(C)C)NC(=O)OCc1ccccc1)C(=O)C(=O)O` (stereo not drawn) [Z-Leu-Abu-COOH, reference compound], in “Half-life in liver”, the t1/2 liver was > 1 h. Also, the t1/2 plasma in “Half-life in plasma” was > 1 h. `CCOC(=O)C(=O)C(Cc1ccccc1)NC(=O)C(CC(C)C)NC(=O)OCc1ccccc1` (stereo not drawn) [Z-Leu-Phe-COOEt, Z--Leu--Phe--COOEt, reference compound] returned a t1/2 plasma in “Half-life in plasma” of 0.13 h. The same measure, in the same setting: for `CCOC(=O)C(=O)[C@H](CC)NC(=O)[C@H](CC(C)C)NC(=O)[C@H](CC(C)C)NC(=O)c1ccc2ccccc2c1` [2-NapCO-Leu-Leu-Abu-COOEt] the value was 0.417 h.

In the case of `CC[C@H](NC(=O)[C@H](CC(C)C)NC(=O)OCc1ccccc1)C(=O)C(=O)NCCc1ccccc1` [Z-Leu-Abu-CONH--(CH2)2 -Ph, Z--Leu--Abu--CONH--(CH2)2 Ph], the “KI Calpain II” value in data set [2] was “best inhibitor”. Consider `CC(C)CNC(=O)C(=O)[C@H](Cc1ccccc1)NC(=O)[C@H](CC(C)C)NC(=O)OCc1ccccc1` [Z-Leu-Phe-CONH-iBu, Z--Leu--Phe--CONH--iBu], for which the t1/2 plasma in the data set “Half-life in plasma” was > 1 h.

In “Half-life in plasma”, `CCOC(=O)C(=O)C(CCSC)NC(=O)C(CC(C)C)NC(=O)OCc1ccccc1` (stereo not drawn) [Z-Leu-Met-COOEt] came in with a t1/2 plasma of 0.133 h. In the case of `CCCC(NC(=O)C(CC(C)C)NC(=O)OCc1ccccc1)C(=O)C(=O)OCC` (stereo not drawn) [Z-Leu-Nva-COOEt, reference compound], in “Half-life in plasma”, the t1/2 plasma is 0.0467 h. As for `CCOC(=O)C(=O)C(CC)NC(=O)C(CC(C)C)NC(=O)C(CC(C)C)NS(=O)(=O)c1ccc2ccccc2c1` (stereo not drawn) [2-NapSO2-Leu-Leu-Abu-COOEt, reference compound], the t1/2 plasma in “Half-life in plasma” is > 1 h. On to `CCNC(=O)C(=O)[C@H](Cc1ccccc1)NC(=O)[C@H](CC(C)C)NC(=O)OCc1ccccc1` [Z-Leu-Phe-CONH-Et, Z--Leu--Phe--CONH--Et], for which the t1/2 liver in “Half-life in liver” is > 1 h. Moreover, the t1/2 plasma in the data set “Half-life in plasma” is > 1 h. For the compound `CCC(NC(=O)C(CC(C)C)NC(=O)OCc1ccccc1)C(=O)C(=O)NCc1ccccc1` (stereo not drawn) [Z-Leu-Abu-CONH-Bzl, Z--Leu--Abu--CONH--Bzl], the t1/2 liver in the data set “Half-life in liver” was > 1 h. Also, in “Half-life in plasma”, the t1/2 plasma is > 1 h.

Regarding `CC(C)C[C@H](NC(=O)OCc1ccccc1)C(=O)N[C@@H](Cc1ccccc1)C(=O)C(=O)NCCc1ccccc1` [Z-Leu-Phe-CONH(CH2)2 Ph, Z--Leu--Phe--CONH--(CH2)2 Ph], the t1/2 plasma in “Half-life in plasma” was > 1 h.

In the case of `CCCCC(NC(=O)C(CC(C)C)NC(=O)OCc1ccccc1)C(=O)C(=O)OCC` (stereo not drawn) [Z-Leu-Nle-COOEt, reference compound], the t1/2 plasma in the data set “Half-life in plasma” stood at 0.0617 h.

The record behind these values is patent US6235929A, “Tripeptide α-ketoamides” (Georgia Tech Research Corporation, priority 1996, dated 2001).
